Results published in patent publication US12637473B2, “MDM2 protein degraders” (THE REGENTS OF THE UNIVERSITY OF MICHIGAN, priority 2016, dated 2026).

Tests used:
[1] = system: MV4-11 cell line; assay: CellTiter-Glo Luminescent Cell Viability Assay, cell growth inhibition; format: cell-based; conditions: Homo sapiens, 96 h, 4 days
Procedure: (§1) Cell growth inhibitory activity of representative MDM2 protein degraders was determined using CellTiter-Glo® Luminescent Cell Viability Assay. Cells were seeded in 384-well white opaque cell culture plates at a density of 2,000 cells/well with serially diluted compounds and incubated at 37° C. in an atmosphere of 95% air and 5% CO2 for 4 days. Cell viability was determined using the CellTiter-Glo® Luminescent Cell Viability Assay Kit (Promega, Madison, WI) according to the manufacture's instruction. Briefly, a volume of CellTiter-Glo® Reagent equal to the volume of cell culture medium was added to each well, and then the plates were incubated at room temperature for 10-20 minutes. The luminescent signal was measured using a Tecan Infinite M1000 multimode microplate reader (Tecan, Morrisville, NC). The half maximal inhibitory concentration (IC50) was calculated using the GraphPad Prism 5 software (GraphPad Software, La Jolla, CA). Cpd. […] The structure of Cpd.

[2] = system: RS4; 11 cell line; assay: as above; format: cell-based; conditions: Homo sapiens, 96 h, 4 days
Procedure: as §1

IC50 [1] | IC50 [2] | SMILES
42 nM | 30 nM | O=C1CCC(N2C(=O)c3cccc(NCCCCCCNC(=O)c4ccc(NC(=O)[C@@H]5NC6(CCCCC6)[C@@]6(C(=O)Nc7cc(Cl)ccc76)[C@H]5c5cccc(Cl)c5F)cc4)c3C2=O)C(=O)N1 (stereo partly drawn) [Cpd. No. 11, (3′R,4'S,5′R)-6″-chloro-4′-(3-chloro-2-fluorophenyl)-N-(4-((6-((2-(2,6-dioxopiperidin-3-yl)-1,3-dioxoisoindolin-4-yl)amino)hexyl)carbamoyl)phenyl)-2″-oxodispiro[cyclohexane-1,2′-pyrrolidine-3′,3″-indoline]-5′-carboxamide]
20 nM | 15 nM | O=C1CCC(N2C(=O)c3cccc(NCCNC(=O)c4ccc(NC(=O)[C@@H]5NC6(CCCCC6)[C@@]6(C(=O)Nc7cc(Cl)ccc76)[C@H]5c5cccc(Cl)c5F)cc4)c3C2=O)C(=O)N1 (stereo partly drawn) [Cpd. No. 7, (3′R,4'S,5′R)-6″-chloro-4′-(3-chloro-2-fluorophenyl)-N-(4-((2-((2-(2,6-dioxopiperidin-3-yl)-1,3-dioxoisoindolin-4-yl)amino)ethyl)carbamoyl)phenyl)-2″-oxodispiro[cyclohexane-1,2′-pyrrolidine-3′,3″-indoline]-5′-carboxamide]
5.2 nM | 7.4 nM | O=C1CCC(N2C(=O)c3cccc(NCCCOCCOCCOCCCNC(=O)c4ccc(NC(=O)[C@@H]5NC6(CCCCC6)[C@@]6(C(=O)Nc7cc(Cl)ccc76)[C@H]5c5cccc(Cl)c5F)cc4)c3C2=O)C(=O)N1 (stereo partly drawn) [Cpd. No. 18, (3′R,4'S,5′R)-6″-chloro-4′-(3-chloro-2-fluorophenyl)-N-(4-((3-(2-(2-(3-((2-(2,6-dioxopiperidin-3-yl)-1,3-dioxoisoindolin-4-yl)amino)propoxy)ethoxy)ethoxy)propyl)carbamoyl)phenyl)-2″-oxodispiro[cyclohexane-1,2′-pyrrolidine-3′,3″-indoline]-5′-carboxamide]
130 nM | 190 nM | CCN1[C@@H](C(=O)NC23CCC(C(=O)NCCOCCOCCOCCOCC(=O)N[C@H](C(=O)N4C[C@H](O)C[C@H]4C(=O)NCc4ccc(-c5scnc5C)cc4)C(C)(C)C)(CC2)CC3)[C@H](c2cccc(Cl)c2F)[C@]2(C(=O)Nc3cc(Cl)ccc32)C12CCCCC2 [Cpd. No. 48, (3′R,4'S,5′R)-6″-chloro-4′-(3-chloro-2-fluorophenyl)-1′-ethyl-N-(4-(((S)-16-((2S,4R)-4-hydroxy-2-((4-(4-methylthiazol-5-yl)benzyl)carbamoyl)pyrrolidine-1-carbonyl)-17,17-dimethyl-14-oxo-3,6,9,12-tetraoxa-15-azaoctadecyl)carbamoyl)bicyclo[2.2.2]octan-1-yl)-2″-oxodispiro[cyclohexane-1,2′-pyrrolidine-3′,3″-indoline]-5′-carboxamide]
37 nM | 38 nM | O=C1CCC(N2C(=O)c3cccc(NCCOCCOCCOCCOc4ccc(NC(=O)c5ccc(NC(=O)[C@@H]6NC7(CCCCC7)[C@@]7(C(=O)Nc8cc(Cl)ccc87)[C@H]6c6cccc(Cl)c6F)cc5)cc4)c3C2=O)C(=O)N1 (stereo partly drawn) [Cpd. No. 6, (3′R,4'S,5′R)-6″-chloro-4′-(3-chloro-2-fluorophenyl)-N-(4-((4-(2-(2-(2-(2-((2-(2,6-dioxopiperidin-3-yl)-1,3-dioxoisoindolin-4-yl)amino)ethoxy)ethoxy)ethoxy)ethoxy)phenyl)carbamoyl)phenyl)-2″-oxodispiro[cyclohexane-1,2′-pyrrolidine-3′,3″-indoline]-5′-carboxamide]
15 nM | 2.2 nM | O=C1CCC(N2C(=O)c3cccc(NCCCOCCOCCOCCCNC4CCN(C(=O)c5ccc(NC(=O)[C@@H]6NC7(CCCCC7)[C@@]7(C(=O)Nc8cc(Cl)ccc87)[C@H]6c6cccc(Cl)c6F)cc5)CC4)c3C2=O)C(=O)N1 (stereo partly drawn) [Cpd. No. 5, (3′R,4'S,5′R)-6″-chloro-4′-(3-chloro-2-fluorophenyl)-N-(4-(4-((3-(2-(2-(3-((2-(2,6-dioxopiperidin-3-yl)-1,3-dioxoisoindolin-4-yl)amino)propoxy)ethoxy)ethoxy)propyl)amino)piperidine-1-carbonyl)phenyl)-2″-oxodispiro[cyclohexane-1,2′-pyrrolidine-3′,3″-indoline]-5′-carboxamide]
7.6 nM | 8.5 nM | O=C1CCC(N2Cc3c(NCCOCCNC(=O)c4ccc(NC(=O)[C@@H]5NC6(CCCCC6)[C@@]6(C(=O)Nc7cc(Cl)ccc76)[C@H]5c5cccc(Cl)c5F)cc4)cccc3C2=O)C(=O)N1 (stereo partly drawn) [Cpd. No. 20, (3′R,4'S,5′R)-6″-chloro-4′-(3-chloro-2-fluorophenyl)-N-(4-((2-(2-((2-(2,6-dioxopiperidin-3-yl)-1-oxoisoindolin-4-yl)amino)ethoxy)ethyl)carbamoyl)phenyl)-2″-oxodispiro[cyclohexane-1,2′-pyrrolidine-3′,3″-indoline]-5′-carboxamide]
20 nM | 20 nM | CCN1[C@@H](C(=O)NC23CCC(C(=O)NCCCOCCOCCOCCCNC(=O)COc4cccc5c4C(=O)N(C4CCC(=O)NC4=O)C5=O)(CC2)CC3)[C@H](c2cccc(Cl)c2F)[C@]2(C(=O)Nc3cc(Cl)ccc32)C12CCCCC2 (stereo partly drawn) [Cpd. No. 46, (3′R,4'S,5′R)-6″-chloro-4′-(3-chloro-2-fluorophenyl)-N-(4-((1-((2-(2,6-dioxopiperidin-3-yl)-1,3-dioxoisoindolin-4-yl)oxy)-2-oxo-7,10,13-trioxa-3-azahexadecan-16-yl)carbamoyl)bicyclo[2.2.2]octan-1-yl)-1′-ethyl-2″-oxodispiro[cyclohexane-1,2′-pyrrolidine-3′,3″-indoline]-5′-carboxamide]
6 nM | 14 nM | O=C1CCC(N2C(=O)c3cccc(OCCOCCOCCOCCNC(=O)c4ccc(NC(=O)[C@@H]5NC6(CCCCC6)[C@@]6(C(=O)Nc7cc(Cl)ccc76)[C@H]5c5cccc(Cl)c5F)cc4)c3C2=O)C(=O)N1 (stereo partly drawn) [Cpd. No. 4, (3′R,4'S,5′R)-6″-chloro-4′-(3-chloro-2-fluorophenyl)-N-(4-((2-(2-(2-(2-((2-(2,6-dioxopiperidin-3-yl)-1,3-dioxoisoindolin-4-yl)oxy)ethoxy)ethoxy)ethoxy)ethyl)carbamoyl)phenyl)-2″-oxodispiro[cyclohexane-1,2′-pyrrolidine-3′,3″-indoline]-5′-carboxamide]
2.7 nM | 4.7 nM | O=C1CCC(N2C(=O)c3cccc(NCCOCCOCCOCCOCCOCCOCCOCCNC(=O)c4ccc(NC(=O)[C@@H]5NC6(CCCCC6)[C@@]6(C(=O)Nc7cc(Cl)ccc76)[C@H]5c5cccc(Cl)c5F)cc4)c3C2=O)C(=O)N1 (stereo partly drawn) [Cpd. No. 16, (3′R,4'S,5′R)-6″-chloro-4′-(3-chloro-2-fluorophenyl)-N-(4-((23-((2-(2,6-dioxopiperidin-3-yl)-1,3-dioxoisoindolin-4-yl)amino)-3,6,9,12,15,18,21-heptaoxatricosyl)carbamoyl)phenyl)-2″-oxodispiro[cyclohexane-1,2′-pyrrolidine-3′,3″-indoline]-5′-carboxamide]
21 nM | 19 nM | O=C1CCC(N2Cc3c(NCCOCCOCCOCCOCCNC(=O)c4ccc(NC(=O)[C@@H]5NC6(CCCCC6)[C@@]6(C(=O)Nc7cc(Cl)ccc76)[C@H]5c5cccc(Cl)c5F)cc4)cccc3C2=O)C(=O)N1 (stereo partly drawn) [Cpd. No. 23, (3′R,4'S,5′R)-6″-chloro-4′-(3-chloro-2-fluorophenyl)-N-(4-((14-((2-(2,6-dioxopiperidin-3-yl)-1-oxoisoindolin-4-yl)amino)-3,6,9,12-tetraoxatetradecyl)carbamoyl)phenyl)-2″-oxodispiro[cyclohexane-1,2′-pyrrolidine-3′,3″-indoline]-5′-carboxamide]

SMILES | IC50 [1] | IC50 [2]
O=C(CNc1cccc2c1C(=O)N(C1CCC(=O)NC1=O)C2=O)NCCCOCCOCCOCCCNC(=O)c1ccc(NC(=O)[C@@H]2NC3(CCCCC3)[C@@]3(C(=O)Nc4cc(Cl)ccc43)[C@H]2c2cccc(Cl)c2F)cc1 (stereo partly drawn) [Cpd. No. 3, (3′R,4'S,5′R)-6″-chloro-4′-(3-chloro-2-fluorophenyl)-N-(4-((1-((2-(2,6-dioxopiperidin-3-yl)-1,3-dioxoisoindolin-4-yl)amino)-2-oxo-7,10,13-trioxa-3-azahexadecan-16-yl)carbamoyl)phenyl)-2″-oxodispiro[cyclohexane-1,2′-pyrrolidine-3′,3″-indoline]-5′-carboxamide] | 5.6 nM | 22 nM
O=C1CCC(N2C(=O)c3cccc(NCCCOCCCCOCCCNC(=O)c4ccc(NC(=O)[C@@H]5NC6(CCCCC6)[C@@]6(C(=O)Nc7cc(Cl)ccc76)[C@H]5c5cccc(Cl)c5F)cc4)c3C2=O)C(=O)N1 (stereo partly drawn) [Cpd. No. 17, (3′R,4'S,5′R)-6″-chloro-4′-(3-chloro-2-fluorophenyl)-N-(4-((3-(4-(3-((2-(2,6-dioxopiperidin-3-yl)-1,3-dioxoisoindolin-4-yl)amino)propoxy)butoxy)propyl)carbamoyl)phenyl)-2″-oxodispiro[cyclohexane-1,2′-pyrrolidine-3′,3″-indoline]-5′-carboxamide] | 21 nM | 19 nM
